In patent US11730819B2, “Peptide derivatives having novel linkage structures” (priority 2016, dated 2023):
Where two headings read alike, the source gives them in different places. Numbered stars: 1 amine (or outer) side, 2 acyl side, 3 side chain; on linkers, the order of the positions; unused ones are H or OH. Bridge positions count the residues as written; N and C are the ends. Square brackets hold non-standard residues; d marks the D form. Peptide text beside a SMILES is read from it. 1Nal = N[C@@H](Cc1cccc2ccccc12)C(=O)O; TBMB = c1c(C[*:1])cc(C[*:3])cc1C[*:2]; Tle = CC(C)(C)[C@H](N)C(=O)O; βAla = NCCC(=O)O; Sar = CNCC(=O)O

Target: T1, MT1-MMP hemopexin domain (Homo sapiens, UniProt P50281)
T1 construct: residues Cys319-Gly511 from the human gene; His6 (N); made in house; host or cells: HEK293 cells (transient, pEXPR-IBA42 vector)
Experiment: Fluorescence polarisation competition binding assay
Settings: for Ki: human MT1-MMP
Excerpt: The MT1-MMP hemopexin-like repeats (also known as the MT1-MMP hemopexin domain), residues Cys319-Gly511 from the human gene, were transiently expressed in HEK293 cells as secreted N-terminally His6-tagged soluble protein, using the pEXPR-IBA42 (IBA) expression vector. Following expression, the protein was purified by Nickel-NTA affinity chromatography followed by gel filtration, and purity was checked by SDS-PAGE. Batch to batch variability was also monitored by fluorescence thermal shift experiments in the presence/absence of a hemopexin domain binding bicycle.
Binding affinity was measured using competition assays using Fluorescence Polarisation (anisotropy).
Fluoresceination may be performed on the N-terminal amino group of the peptide, which is separated from the bicycle core sequence by a sarcosine spacer (usually Sar5). This can be done during Fmoc solid phase synthesis or post-synthetically (after cyclisation with TBMB and purification) if the N-terminal amino group is unique to the peptide. Fluoresceination can also be performed on the C-terminus, usually on a Lysine introduced as the first C-terminal residue, which is then separated from the bicycle core sequence by a sarcosine spacer (usually Sar6). Thus, N-terminal tracers can have a molecular format described as Fluo-Gly-Sar5-A(BicycleCoreSequence), and (BicycleCoreSequence)-A-Sar6-K(Fluo) for a C-terminally fluoresceinated construct. Fluorescent tracers used in the Examples are A-(17-69)-A-Sar6-K(Fluo), A-(17-69-07)-A-Sar6-K(Fluo), and A-(17-69-12)-A-Sar6-K(Fluo).
Here, a pre-formed complex of PEX with the fluorescent PEX-binding tracer is titrated with free, non-fluoresceinated bicyclic peptide. Since all 17-69-based peptides are expected to bind at the same site, the titrant will displace the fluorescent tracer from PEX. Dissociation of the complex can be measured quantitatively, and the Kd of the competitor (titrant) to the target protein determined. The advantage of the competition method is that the affinities of non-fluoresceinated bicyclic peptides can be determined accurately and rapidly.
Subsequently, the non-fluorescent competitor bicyclic peptide (usually just the bicycle core sequence) is titrated, such that it displaces the fluorescent tracer from the target protein. The displacement of the tracer is measured and associated with a drop in fluorescence polarisation. The drop in fluorescence polarisation is proportional to the fraction of target protein bound with the non-fluorescent titrant, and thus is a measure of the affinity of titrant to target protein.
The raw data is fit to the analytical solution of the cubic equation that describes the equilibria between fluorescent tracer, titrant, and binding protein. The fit requires the value of the affinity of fluorescent tracer to the target protein, which can be determined separately by direct binding FP experiments (see previous section).

[1] = Binding Affinity Ki (h), bicycle peptides
[2] = bicycle peptides, read-out: Binding Affinity Ki (h)

Structure (SMILES) | Kd | Ki [2] | other results
C[C@H](NC(=O)CN(C)C(=O)CN(C)C(=O)CN(C)C(=O)CN(C)C(=O)CN(C)C(=O)CN(C)C(=O)CN(C)C(=O)CN(C)C(=O)CN(C)C(=O)CN(C)C(=O)CCN)C(=O)N[C@H]1CSCc2cc3cc(c2)CSC[C@H](NC(=O)[C@@H](C)NC(=O)[C@H](Cc2cccc4ccccc24)NC(=O)[C@H](CCC(=O)O)NC(=O)[C@H](CC(N)=O)NC(=O)[C@@H](C)NC1=O)C(=O)N[C@@H](CCC(=O)O)C(=O)N[C@@H](CC(=O)O)C(=O)N[C@@H](Cc1ccccc1)C(=O)N[C@@H](Cc1ccc(O)cc1)C(=O)N[C@@H](CC(=O)O)C(=O)N[C@@H](C(C)(C)C)C(=O)N[C@H](C(N)=O)CSC3 [17-69-07-N241, H-(β-Ala)-Sar10-Ala-Cys-(D-Ala)-Asn-Glu-(1Nal)-(D-Ala)-Cys-Glu-Asp-Phe-Tyr-Asp-(tBuGly)-Cys-NH2, reference compound] (H-[βAla][Sar][Sar][Sar][Sar][Sar][Sar][Sar][Sar][Sar][Sar]AC[dA]NE[1Nal][dA]CEDFYD[Tle]C-NH2; linker 13-19-26 via TBMB) | 0.23 nM | – | –
CC(=O)N[C@@H](C)C(=O)N[C@H]1CNCc2cc3cc(c2)CSC[C@H](NC(=O)[C@@H](C)NC(=O)[C@H](Cc2cccc4ccccc24)NC(=O)[C@H](CCC(=O)O)NC(=O)[C@H](CC(N)=O)NC(=O)[C@@H](C)NC1=O)C(=O)N[C@@H](CCC(=O)O)C(=O)N[C@@H](CC(=O)O)C(=O)N[C@@H](Cc1ccccc1)C(=O)N[C@@H](Cc1ccc(O)cc1)C(=O)N[C@@H](CC(=O)O)C(=O)N[C@@H](C(C)(C)C)C(=O)N[C@H](C(N)=O)CNC3 [17-69-07-N385, Ac-A(Dap)(D-Ala)NE(1Nal)(D-Ala)CEDFYD(tBuGly)(Dap)] | 0.45 nM | – | –
CC(=O)N[C@@H](C)C(=O)N[C@H]1CN(C)Cc2cc3cc(c2)CN(C)C[C@@H](C(N)=O)NC(=O)[C@H](C(C)(C)C)NC(=O)[C@H](CC(=O)O)NC(=O)[C@H](Cc2ccc(O)cc2)NC(=O)[C@H](Cc2ccccc2)NC(=O)[C@H](CC(=O)O)NC(=O)[C@H](CCC(=O)O)NC(=O)[C@H](CSC3)NC(=O)[C@@H](C)NC(=O)[C@H](Cc2cccc3ccccc23)NC(=O)[C@H](CCC(=O)O)NC(=O)[C@H](CC(N)=O)NC(=O)[C@@H](C)NC1=O [17-69-07-N426, Ac-A(Dap(Me))(D-Ala)NE(1Nal)(D-Ala)CEDFYD(tBuGly)(Dap(Me))] | – | – | Kd (competition FP, bicycle peptides, read-out: measured affinity (Kd) to MT1-MMP): 0.36 nM
CC(=O)N[C@@H](C)C(=O)N[C@H]1CNCc2cc3cc(c2)CSC[C@H](NC(=O)[C@@H](C)NC(=O)[C@H](Cc2cccc4ccccc24)NC(=O)[C@H](CCC(=O)O)NC(=O)[C@H](CC(N)=O)NC(=O)[C@@H](C)NC1=O)C(=O)N[C@@H](CCC(=O)O)C(=O)N[C@@H](CC(=O)O)C(=O)N[C@@H](Cc1ccccc1)C(=O)N[C@@H](Cc1ccccc1)C(=O)N[C@@H](CC(=O)O)C(=O)N[C@@H](C(C)(C)C)C(=O)N[C@H](C(N)=O)CNC3 [17-69-07-N428, Ac-A(Dap)(D-Ala)NE(1Nal)(D-Ala)CEDFF9D(tBuGly)(Dap)] | 3.5 nM | – | –
C#CCCC(=O)NCCC(=O)N(C)CC(=O)N(C)CC(=O)N(C)CC(=O)N(C)CC(=O)N(C)CC(=O)N(C)CC(=O)N(C)CC(=O)N(C)CC(=O)N(C)CC(=O)N(C)CC(=O)N[C@@H](C)C(=O)N[C@H]1CNCc2cc3cc(c2)CSC[C@H](NC(=O)[C@@H](C)NC(=O)[C@H](Cc2cccc4ccccc24)NC(=O)[C@H](CCC(=O)O)NC(=O)[C@H](CC(N)=O)NC(=O)[C@@H](C)NC1=O)C(=O)N[C@@H](CCC(=O)O)C(=O)N[C@@H](CC(=O)O)C(=O)N[C@@H](Cc1ccccc1)C(=O)N[C@@H](Cc1ccc(O)cc1)C(=O)N[C@@H](CC(=O)O)C(=O)N[C@@H](C(C)(C)C)C(=O)N[C@H](C(N)=O)CNC3 [17-69-07-N434, (PYA)-(B-Ala)-Sar10-A(Dap)(D-Ala)NE(1Nal)(D-Ala)CEDFYD(tBuGly)(Dap)] | 1.52 nM | – | –
C#CCCC(=O)N[C@@H](C)C(=O)N[C@H]1CNCc2cc3cc(c2)CSC[C@H](NC(=O)[C@@H](C)NC(=O)[C@H](Cc2cccc4ccccc24)NC(=O)[C@H](CCC(=O)O)NC(=O)[C@H](CC(N)=O)NC(=O)[C@@H](C)NC1=O)C(=O)N[C@@H](CCC(=O)O)C(=O)N[C@@H](CC(=O)O)C(=O)N[C@@H](Cc1ccccc1)C(=O)N[C@@H](Cc1ccc(O)cc1)C(=O)N[C@@H](CC(=O)O)C(=O)N[C@@H](C(C)(C)C)C(=O)N[C@H](C(N)=O)CNC3 [17-69-07-N438, PYA-A(Dap)(D-Ala)NE(1Nal)(D-Ala)CEDFYD(tBuGly)(Dap)] | – | – | Ki [1]: 3.1 nM
C#CCCC(=O)N[C@@H](C)C(=O)N[C@H]1CN(C)Cc2cc3cc(c2)CN(C)C[C@@H](C(N)=O)NC(=O)[C@H](C(C)(C)C)NC(=O)[C@H](CC(=O)O)NC(=O)[C@H](Cc2ccc(O)cc2)NC(=O)[C@H](Cc2ccccc2)NC(=O)[C@H](CC(=O)O)NC(=O)[C@H](CCC(=O)O)NC(=O)[C@H](CSC3)NC(=O)[C@@H](C)NC(=O)[C@H](Cc2cccc3ccccc23)NC(=O)[C@H](CCC(=O)O)NC(=O)[C@H](CC(N)=O)NC(=O)[C@@H](C)NC1=O [17-69-07-N443, PYA-A(Dap(Me))(D-Ala)NE(1Nal)(D-Ala)CEDFYD(tBuGly)(Dap(Me))] | – | 3.2 nM | –
C[C@H](NC(=O)CN(C)C(=O)CN(C)C(=O)CN(C)C(=O)CN(C)C(=O)CN(C)C(=O)CN(C)C(=O)CN(C)C(=O)CN(C)C(=O)CN(C)C(=O)CN(C)C(=O)CCN)C(=O)N[C@H]1CN(C)Cc2cc3cc(c2)CN(C)C[C@@H](C(N)=O)NC(=O)[C@H](C(C)(C)C)NC(=O)[C@H](CC(=O)O)NC(=O)[C@H](Cc2ccc(O)cc2)NC(=O)[C@H](Cc2ccccc2)NC(=O)[C@H](CC(=O)O)NC(=O)[C@H](CCC(=O)O)NC(=O)[C@H](CSC3)NC(=O)[C@@H](C)NC(=O)[C@H](Cc2cccc3ccccc23)NC(=O)[C@H](CCC(=O)O)NC(=O)[C@H](CC(N)=O)NC(=O)[C@@H](C)NC1=O [17-69-07-N451, (B-Ala)-Sar10-A(Dap(Me))(D-Ala)NE(1Nal)(D-Ala)CEDFYD(tBuGly)(Dap(Me))] | – | 3.7 nM | –
C[C@H](N)C(=O)N[C@H]1CN(C)Cc2cc3cc(c2)CN(C)C[C@@H](C(N)=O)NC(=O)[C@H](C(C)(C)C)NC(=O)[C@H](CC(=O)O)NC(=O)[C@H](Cc2ccc(O)cc2)NC(=O)[C@H](Cc2ccccc2)NC(=O)[C@H](CC(=O)O)NC(=O)[C@H](CCC(=O)O)NC(=O)[C@H](CSC3)NC(=O)[C@@H](C)NC(=O)[C@H](Cc2cccc3ccccc23)NC(=O)[C@H](CCC(=O)O)NC(=O)[C@H](CC(N)=O)NC(=O)[C@@H](C)NC1=O [17-69-07-N452, A(Dap(Me))(D-Ala)NE(1Nal)(D-Ala)CEDFYD(tBuGly)(Dap(Me))] | – | 4 nM | –
CC(=O)NCCC(=O)N(C)CC(=O)N(C)CC(=O)N(C)CC(=O)N(C)CC(=O)N(C)CC(=O)N(C)CC(=O)N(C)CC(=O)N(C)CC(=O)N(C)CC(=O)N(C)CC(=O)N[C@@H](C)C(=O)N[C@H]1CN(C)Cc2cc3cc(c2)CN(C)C[C@@H](C(N)=O)NC(=O)[C@H](C(C)(C)C)NC(=O)[C@H](CC(=O)O)NC(=O)[C@H](Cc2ccc(O)cc2)NC(=O)[C@H](Cc2ccccc2)NC(=O)[C@H](CC(=O)O)NC(=O)[C@H](CCC(=O)O)NC(=O)[C@H](CSC3)NC(=O)[C@@H](C)NC(=O)[C@H](Cc2cccc3ccccc23)NC(=O)[C@H](CCC(=O)O)NC(=O)[C@H](CC(N)=O)NC(=O)[C@@H](C)NC1=O [17-69-07-N454, Ac-(B-Ala)-Sar10-A(Dap(Me))(D-Ala)NE(1Nal)(D-Ala)CEDFYD(tBuGly)(Dap(Me))] | – | 3 nM | –
CC(=O)NCCC(=O)N(C)CC(=O)N(C)CC(=O)N(C)CC(=O)N(C)CC(=O)N(C)CC(=O)N(C)CC(=O)N(C)CC(=O)N(C)CC(=O)N(C)CC(=O)N(C)CC(=O)N[C@@H](C)C(=O)N[C@H]1CNCc2cc3cc(c2)CSC[C@H](NC(=O)[C@@H](C)NC(=O)[C@H](Cc2cccc4ccccc24)NC(=O)[C@H](CCC(=O)O)NC(=O)[C@H](CC(N)=O)NC(=O)[C@@H](C)NC1=O)C(=O)N[C@@H](CCC(=O)O)C(=O)N[C@@H](CC(=O)O)C(=O)N[C@@H](Cc1ccccc1)C(=O)N[C@@H](Cc1ccc(O)cc1)C(=O)N[C@@H](CC(=O)O)C(=O)N[C@@H](C(C)(C)C)C(=O)N[C@H](C(N)=O)CNC3 [17-69-07-N455, Ac-(B-Ala)-Sar10-A(Dap)(D-Ala)NE(1Nal)(D-Ala)CEDFYD(tBuGly)(Dap)] | – | – | Ki [1]: 4 nM
